Results on five molecules are retold here after article PMC4681651 (Neuropharmacology, 2015).

Values joined by “and” are separate entries in the source; they are usually repeats but may differ in a detail not shown here. Equal values may be shown once. Where a name gives a salt, the structure may show the parent alone. Read-outs that look alike come from different tables or passages of the source.

The test system of data set [1] is 129SvEv;C57Bl/6J F1 hybrid mice. The data set is described as follows: Marble burying. The class given is in vivo. The conditions noted are these: mouse, 10 min before 15 min test.
The test system of data set [2] is Sprague-Dawley rats. Briefly: Forced swim test. The class given is in vivo. The conditions noted are these: rat, three doses, 300 sec test.
The subject of data set [3] is Sprague-Dawley rats. The class given is in vivo. The conditions noted are these: rat.
For data set [4], the system named is opiate receptor binding sites labeled by [^3H]-naloxone. Briefly: [3H]-naloxone binding competition assay in rat forebrain membranes.
For data set [5], the system named is Sprague-Dawley rats. The data set is described as follows: Open field locomotor activity. The class given is in vivo. The conditions noted are these: rat, 30 min after injection, 10 min test.
Data set [6] relates to 129SvEv;C57Bl/6J F1 hybrid mice. Briefly: Forced swim test. The class given is in vivo, mouse. The conditions noted are these: 6 min test; for immobility time vs vehicle: mouse.
The nature of a further data set: Straub tail observation. The class given is in vivo. The conditions noted are these: doses used in the behavioral studies.
Another data set deals with rat α3β4 nAChRs. To be noted: 2001, cited from earlier work; for block of rat α3β4 nAChR channels: ref Xiao et al.
The conditions of data set [7]: 100 mg/kg, sc; ref Pohland et al., 1971; cited from earlier work.
The test system of data set [8] is 129SvEv;C57Bl/6J F1 hybrid mice. Briefly: Home cage locomotor activity. The class given is in vivo. The conditions noted are these: mouse, 0.5, 1, 5, 10 mg/kg i.p., 60 min.
The target of a further data set is human α3β4 nAChRs (Homo sapiens, UniProt P30926+P32297). Briefly: 86Rb+ efflux assay, block of nicotine-stimulated channel function.
[9] abbreviates: [3H]-naloxone sites, rat forebrain.

human α3β4 nAChRs, sequence (P32297 32-505): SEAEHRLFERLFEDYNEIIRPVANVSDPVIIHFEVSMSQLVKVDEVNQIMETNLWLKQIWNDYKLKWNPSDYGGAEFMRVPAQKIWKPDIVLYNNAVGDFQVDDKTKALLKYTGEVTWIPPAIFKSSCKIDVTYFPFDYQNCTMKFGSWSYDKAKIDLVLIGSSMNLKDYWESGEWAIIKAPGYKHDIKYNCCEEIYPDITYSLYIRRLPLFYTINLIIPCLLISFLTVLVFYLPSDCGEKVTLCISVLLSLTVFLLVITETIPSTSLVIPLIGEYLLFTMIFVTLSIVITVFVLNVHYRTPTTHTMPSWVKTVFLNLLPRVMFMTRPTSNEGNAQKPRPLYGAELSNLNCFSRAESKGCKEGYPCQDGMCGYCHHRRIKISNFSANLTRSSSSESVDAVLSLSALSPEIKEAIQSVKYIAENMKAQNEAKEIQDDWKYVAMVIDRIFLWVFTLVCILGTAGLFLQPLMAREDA
human α3β4 nAChRs, sequence (P30926 22-498): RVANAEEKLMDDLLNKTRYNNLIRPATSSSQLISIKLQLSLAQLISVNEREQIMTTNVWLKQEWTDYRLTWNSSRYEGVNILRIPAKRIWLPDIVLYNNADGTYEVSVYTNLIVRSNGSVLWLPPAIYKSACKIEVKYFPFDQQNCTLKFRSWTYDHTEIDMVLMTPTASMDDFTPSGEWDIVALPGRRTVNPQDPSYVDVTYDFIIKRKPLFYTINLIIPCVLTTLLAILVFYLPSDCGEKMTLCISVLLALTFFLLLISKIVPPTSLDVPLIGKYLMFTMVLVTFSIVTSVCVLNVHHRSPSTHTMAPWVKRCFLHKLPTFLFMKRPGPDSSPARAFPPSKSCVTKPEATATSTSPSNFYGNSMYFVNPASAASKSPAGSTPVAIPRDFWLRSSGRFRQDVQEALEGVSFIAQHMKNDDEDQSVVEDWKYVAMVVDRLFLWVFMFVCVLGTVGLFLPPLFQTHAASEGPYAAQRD

In the case of `CNC1=Nc2ccc(Cl)cc2C(c2ccccc2)=[N+]([O-])C1` [CDP, chlordiazepoxide HCl, reference compound], the “marbles buried vs vehicle” value in data set [1] (10 mg/kg i.p.) was “buried significantly fewer marbles”.
Consider `CNC1(C)C2CCC(C2)C1(C)C` (centres unmarked) [Mecamylamine, Mecamylamine HCl], for which the “immobile time vs vehicle” value in the data set on Sprague-Dawley rats [2] (5 mg/kg s.c.) was “reduced immobile time”. In the data set with Sprague-Dawley rats [3] (5 mg/kg), the “onset of ptosis after injection” value was no more than 15 min and the “ptosis observed during forced swim tests” value is “obvious ptosis”. In addition, the “ptosis over 3h observation” value in the data set with Sprague-Dawley rats [3] (5 mg/kg, significant at 30 and 45 min, not at 3 h) is given as “produced ptosis in a time-dependent manner”.
In the case of “2-ethylidene-1,5,dimethyl-3,3-diphenylpyrrolidine perchlorate [EDDP]”, in data set [4] (setting [9]), the “fold lower affinity than methadone” value was ~ 83 fold and the “fraction of binding sites competed for” value is listed as “nearly all of the binding sites”. For the same molecule, the “open field locomotor activity” value in the data set with Sprague-Dawley rats [5] (10mg/kg s.c.) was “neither EDDP nor EMDP significantly altered open field locomotor activity”. In addition, the “marbles buried vs vehicle” value in [1] (5 mg/kg i.p.) is given as “buried significantly fewer marbles”. In data set [1] (10 mg/kg i.p.), the “marbles buried vs vehicle” value is given as “did not reach statistical significance”. The “immobile time vs vehicle” value with Sprague-Dawley rats [2] (10 mg/kg s.c.) was “without effect”. The “duration of immobility vs vehicle” value in data set [6] (mouse, 1, 5, or 10 mg/kg i.p.) is given as “did not produce a significant effect on duration of immobility”. In addition, in the data set “Straub tail observation”, the Straub tail effects entry is listed as “failed to observe any Straub tail effects”. The “block of rat α3β4 nAChR channels” value with rat α3β4 nAChRs is on record as “potently block”. For the same molecule, in data set [7], the “analgesia in the tail-flick assay” value was “neither compound produces analgesia”.
For the molecule `CN[C@H]1CC[C@@H](c2ccc(Cl)c(Cl)c2)c2ccccc21` [sertraline, sertraline HCl, reference compound], the “immobile time vs vehicle” value in the data set with Sprague-Dawley rats [2] (20 mg/kg s.c.) is given as “significantly reduced immobile time”.
Broadly, the Ki is a dissociation constant, usually derived from enzyme kinetics or from competition with a known ligand. In [4] (2 nM [3H]-naloxone, rat forebrain, single-site fit), `CCC1=NC(C)CC1(c1ccccc1)c1ccccc1.Cl` (centres unmarked) [EMDP, 2-ethyl-5-methyl-3,3,-diphenyl-1-pyrroline hydrochloride] displayed a Ki of 21 µM. Moreover, in data set [4] (setting [9]), the “fold lower affinity than methadone” value is 1900 fold and ~ 1900 fold. In addition, the “sites competed for” value in data set [4] (even at a concentration of 100 μM) is recorded as 60%. Also, in the data set on Sprague-Dawley rats [5] (5mg/kg s.c.), the “open field locomotor activity” value is given as “neither EDDP nor EMDP significantly altered open field locomotor activity”. For the same molecule, the overall locomotor activity entry in data set [8] is reported as “did not significantly affect overall locomotor activity”. In addition, the “marbles buried vs vehicle” value is listed as “not at the 1 mg/kg dose” in [1] (1 mg/kg i.p.), “buried significantly fewer marbles” in data set [1] (5 mg/kg i.p.) and “buried significantly fewer marbles” in data set [1] (10 mg/kg i.p.). Moreover, the “immobile time vs vehicle” value in the data set on Sprague-Dawley rats [2] (10 mg/kg s.c.) and in the data set on Sprague-Dawley rats [2] (20 mg/kg s.c.) was “reduced immobile time” each time. Moreover, the “immobility time vs vehicle” value in [6] (5 mg/kg i.p.) was “did not affect immobility time”; in [6] (10 mg/kg i.p.), “significantly reduced it”. In addition, the “ptosis over 3h observation” value in the data set with Sprague-Dawley rats [3] (20 mg/kg) is “ptosis was not apparent at any time”. Further, the “ptosis observed during forced swim tests” value in the data set on Sprague-Dawley rats [3] (10 and 20 mg/kg) is listed as “did not produce ptosis”. In addition, the Straub tail effects entry in the data set “Straub tail observation” is reported as “failed to observe any Straub tail effects”. The “potency relative to mecamylamine in blocking rat α3β4 nAChRs” value in the data set on rat α3β4 nAChRs (ref Xiao et al) is on record as “only one-sixth as potent”. Also, the “block of rat α3β4 nAChR channels” value in the data set with rat α3β4 nAChRs was “potently block”. In data set [7], the “analgesia in the tail-flick assay” value was “neither compound produces analgesia”. The “potency relative to mecamylamine in blocking human α3β4 nAChRs” value at human α3β4 nAChRs was “only half as potent as mecamylamine”.
